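Where inhibition never reached the appropriate level, the endpoint shown equals the highest concentration tested. Otherwise, values were interpolated linearly from a five-concentration, 48-hour dose response in 96-well plates. GI50 = concentration required for 50% inhibition of growth.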 Active and inactive are the calls of the source. No stated cut-off is given here; in the data, active = GI50 up to about 1.1 µM and inactive = higher.
How the values were obtained:
Assay in all cases: NCI anticancer screen, dose series, 48 h
HCC 2998 = test system: HCC 2998
K562 = test system: K562
UO-31 = test system: UO-31
EKVX = test system: EKVX
NCI-H460 = test system: NCI-H460
TK-10 = test system: TK-10
SNB-78 = test system: SNB-78
LXFL 529 = test system: LXFL 529
RXF 393 = test system: RXF 393
U-251 = test system: U-251
CCRF-CEM = test system: CCRF-CEM
SF-295 = test system: SF-295
KM12 = test system: KM12
A549 = test system: A549
SK-OV-3 = test system: SK-OV-3
SNB-19 = test system: SNB-19
SK-MEL-2 = test system: SK-MEL-2
NCI-H226 = test system: NCI-H226
SK-MEL-5 = test system: SK-MEL-5
RXF 631 = test system: RXF 631
HOP-92 = test system: HOP-92
DMS-273 = test system: DMS-273
LOX IMVI = test system: LOX IMVI
UACC-257 = test system: UACC-257
M14 = test system: M14
SF-268 = test system: SF-268
IGROV-1 = test system: IGROV-1
NCI-H522 = test system: NCI-H522
786-0 = test system: 786-0
OVCAR-8 = test system: OVCAR-8
HL-60 = test system: HL-60
HCT-116 = test system: HCT-116
SW-620 = test system: SW-620
SR = test system: SR
HCT-15 = test system: HCT-15
OVCAR-5 = test system: OVCAR-5
SK-MEL-28 = test system: SK-MEL-28
CAKI-1 = test system: CAKI-1
HOP-62 = test system: HOP-62
SN12C = test system: SN12C
MOLT-4 = test system: MOLT-4
ACHN = test system: ACHN
XF498 = test system: XF498
NCI-H23 = test system: NCI-H23
HT-29 = test system: HT-29
UACC-62 = test system: UACC-62

C/N=c1/ss/c(=N\C(SC)=[N+](C)C)n1C.[O-][Cl+3]([O-])([O-])[O-]
GI50 (HCC 2998): > 100 µM (inactive) | GI50 (K562): 17.3 µM (inactive) | GI50 (UO-31): > 100 µM (inactive) | GI50 (EKVX): 80.7 µM (inactive) | GI50 (NCI-H460): 4.09 µM (inactive) | GI50 (TK-10): > 100 µM (inactive) | GI50 (SNB-78): > 100 µM (inactive) | GI50 (LXFL 529): > 100 µM (inactive) | GI50 (RXF 393): > 100 µM (inactive) | GI50 (U-251): > 100 µM (inactive) | GI50 (CCRF-CEM): 3.97 µM (inactive) | GI50 (SF-295): > 100 µM (inactive) | GI50 (KM12): > 100 µM (inactive) | GI50 (A549): > 100 µM (inactive) | GI50 (SK-OV-3): > 100 µM (inactive) | GI50 (SNB-19): > 100 µM (inactive) | GI50 (SK-MEL-2): > 100 µM (inactive) | GI50 (NCI-H226): > 100 µM (inactive) | GI50 (SK-MEL-5): 0.419 µM (active) | GI50 (RXF 631): 8.13 µM (inactive) | GI50 (HOP-92): > 100 µM (inactive) | GI50 (DMS-273): > 100 µM (inactive) | GI50 (LOX IMVI): > 100 µM (inactive) | GI50 (UACC-257): > 100 µM (inactive) | GI50 (M14): > 100 µM (inactive) | GI50 (SF-268): > 100 µM (inactive) | GI50 (IGROV-1): > 100 µM (inactive) | GI50 (NCI-H522): 14.8 µM (inactive) | GI50 (786-0): > 100 µM (inactive) | GI50 (OVCAR-8): > 100 µM (inactive) | GI50 (HL-60): 31.3 µM (inactive) | GI50 (HCT-116): > 100 µM (inactive) | GI50 (SW-620): > 100 µM (inactive) | GI50 (SR): > 100 µM (inactive) | GI50 (HCT-15): > 100 µM | GI50 (OVCAR-5): > 100 µM (inactive) | GI50 (SK-MEL-28): > 100 µM (inactive) | GI50 (CAKI-1): 54.8 µM (inactive) | GI50 (HOP-62): > 100 µM (inactive) | GI50 (SN12C): > 100 µM (inactive) | GI50 (MOLT-4): 21.1 µM (inactive) | GI50 (ACHN): > 100 µM (inactive) | GI50 (XF498): > 100 µM (inactive) | GI50 (NCI-H23): > 100 µM (inactive) | GI50 (HT-29): 4.98 µM (inactive) | GI50 (UACC-62): 3.99 µM (inactive)
